Compound: Clc1ccc2c(N3CCN(CCCN4CCN(c5ccnc6cc(Cl)ccc56)CC4)CC3)ccnc2c1 [piperaquine]
Description: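 Kenyan Plasmodium falciparum field isolates (2008-2021) were tested in a SYBR Green I growth-inhibition assay, either immediately ex vivo (fresh samples) or in vitro after culture adaptation. Cultures were at 1% parasitemia and 2% hematocrit, incubated with serial drug dilutions for 72 h at 37 °C (5% O2, 5% CO2), then read by fluorescence. IC50 was fitted by non-linear regression of the dose-response curve.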

Test System	IC50 growth inhibition
601-006	0.016 mg/L
601-0018	0.00948 mg/L
601-0023	0.0124 mg/L
601-0031	0.0161 mg/L
601-0132	0.0171 mg/L
601-0140	0.0251 mg/L
601-0154	0.0252 mg/L
601-0157	0.0068 mg/L
601-0163	0.022 mg/L
601-0186	0.0596 mg/L
601-0189	0.0275 mg/L
601-209	0.0646 mg/L
601-226	0.0572 mg/L
601-239	0.0156 mg/L
601-257	0.112 mg/L
601-0260	2.46 mg/L
601-262	0.112 mg/L
601-272	0.0205 mg/L
601-0284	0.0176 mg/L
601-292	0.0322 mg/L
KCH19/06/0013	0.0146 mg/L
KCH 10/04/099	0.517 mg/L
KCH 10/05/108	0.0451 mg/L
KCH 10/05/113	0.00858 mg/L

Test System	IC50 growth inhibition
KCH 10/05/0116	0.00881 mg/L
KCH 10/06/119	0.0127 mg/L
KCH 10/06/120	0.163 mg/L
KCH 10/06/0122	0.069 mg/L
KCH 11/04/143	0.0205 mg/L
KCH 11/05/145	0.012 mg/L
KCH 13/1/192	0.0674 mg/L
KCH 13/9/226	0.0268 mg/L
KCH 14/03/247	0.0132 mg/L
KCH 14/10/281	0.00857 mg/L
KCH 14/10/283	0.00595 mg/L
KCH 15/05/310	0.0734 mg/L
KCH 15/06/316	0.0313 mg/L
KCH 15/09/334	0.00243 mg/L
KCH 15/10/339	0.00252 mg/L
KCH 16/05/361	0.00583 mg/L
KCH 16/07/365	0.0312 mg/L
KCH 16/08 369	0.00323 mg/L
KCH 17/09/372	0.00845 mg/L
KCH 17/09/373	0.00701 mg/L
KCH 17/09/374	0.00492 mg/L
KCH 18/07/0001	0.0158 mg/L
KCH 18/09/0003	0.0047 mg/L
KCH 19/04/0010	0.00314 mg/L

Test System	IC50 growth inhibition
KDH 10/02/0354	0.016 mg/L
KDH 10/11/521	0.03 mg/L
KDH 10/12/535	0.0114 mg/L
KDH 11/9/709	0.55 mg/L
KDH 11/10/728	0.105 mg/L
KDH 11/10/733	5.01 mg/L
KDH 12/10/909	0.00983 mg/L
KDH 12/10/918	0.0132 mg/L
KDH 12/11/923	0.0145 mg/L
KDH 12/11/928	0.00444 mg/L
KDH 13/09/1180	0.00678 mg/L
KDH 14/03/1351	0.0107 mg/L
KDH 14/05/1379	0.0283 mg/L
KDH 14/05/1396	0.0267 mg/L
KDH 14/05/1397	0.0137 mg/L
KDH 14/05/1400	0.027 mg/L
KDH 14/05/1402	0.0119 mg/L
KDH 15/01/1569	0.00462 mg/L
KDH 15/04/1616	0.028 mg/L
KDH 15/04/1619	0.0223 mg/L
KDH 15/06/1657	0.00996 mg/L
KDH 15/06/1658	0.0205 mg/L
KDH 15/06/1659	0.0165 mg/L
KDH 16/07/1821	0.0191 mg/L

Test System	IC50 growth inhibition
KDH 16/07/1823	0.0202 mg/L
KDH 16/07/1824	0.0512 mg/L
KDH 16/07/1826	0.0257 mg/L
KDH 16/07/1828	0.0285 mg/L
KDH 16/07/1829	0.00272 mg/L
KDH 16/07/1830	0.00694 mg/L
KDH 16/07/1831	0.0278 mg/L
KDH 16/07/1832	0.00427 mg/L
KDH 18/07/0001	0.00119 mg/L
KDH 18/07/0010	0.0227 mg/L
KDH 19/02/0077	0.017 mg/L
KDH 19/07/0120	0.00745 mg/L
KDH 19/12/0155	0.0208 mg/L
KDH 19/12/0156	0.0196 mg/L
KDH 19/12/0157	0.0175 mg/L
KDH 20/01/0159	0.0288 mg/L
KDH 20/01/0163	0.0245 mg/L
KDH 20/01/0166	0.0768 mg/L
KDH 21/02/0166	0.0768 mg/L
KDH 21/02/0167	0.0233 mg/L
KDH 21/02/0170	0.0523 mg/L
KDH 21/02/0173	0.0368 mg/L
KDH 21/02/0197	0.0184 mg/L
KDH 21/02/0198	0.0345 mg/L

Test System	IC50 growth inhibition
KDH 21/04/0218	0.003 mg/L
KDH 21/05/0220	0.0025 mg/L
KDH 21/05/0225	0.0071 mg/L
KDH 21/05/0230	0.127 mg/L
KDH 21/08/0250	0.0617 mg/L
KDH 21/08/0254	0.0379 mg/L
KOM 13/07/0006	0.0108 mg/L
KOM 13/07/0007	0.00616 mg/L
KOM 13/07/009	0.0226 mg/L
KOM 13/07/0010	0.00114 mg/L
KOM 13/08/0025	0.0147 mg/L
KOM 13/08/0034	0.0232 mg/L
KOM 13/09/0051	0.0206 mg/L
KOM 13/10/0073 D28/0	0.015 mg/L
KOM 13/10/0089	0.0186 mg/L
KOM 13/11/104	0.0175 mg/L
KOM 13/11/116	0.0287 mg/L
KOM 14/03/169	0.015 mg/L
KOM 14/03/189	0.018 mg/L
KOM 14/04/215	0.0255 mg/L
KOM 14/04/222	0.0193 mg/L
KOM 14/06/270	0.0171 mg/L
KOM 14/09/317	0.0159 mg/L
KOM 15/03/383	0.00453 mg/L

Test System	IC50 growth inhibition
KOM 15/04/398	0.00975 mg/L
KOM 15/05/416	0.00162 mg/L
KOM 15/05/417	0.00145 mg/L
KOM 15/05/421 D42	0.0404 mg/L
KOM 16/07/0609	0.0181 mg/L
KOM 16/07/0610	0.00766 mg/L
KOM 16/07/0611	0.0143 mg/L
KOM 16/07/0616	0.0305 mg/L
KOM 16/07/0620	0.0115 mg/L
KOM 16/08/0627	0.0067 mg/L
KOM 18/07/0004	0.0101 mg/L
KOM 18/07/0005	0.00889 mg/L
KOM 18/11/0045	0.00771 mg/L
KOM 19/01/0053	0.0191 mg/L
KOM 19/11/0147	0.0105 mg/L
KOM 19/12/0149	0.0283 mg/L
KOM 19/12/0150	0.00909 mg/L
KOM 19/12/151	0.0169 mg/L
KOM 19/12/155	0.0208 mg/L
KOM 19/12/0166	0.0355 mg/L
KOM 20/01/0165	0.0111 mg/L
KOM 20/01/0168	0.0157 mg/L
KOM 20/01/0172	0.0184 mg/L
KOM 20/01/0174	0.062 mg/L
